From patent US8329686B2, “Isatin analogues and uses therefor” (Washington University, priority 2006, dated 2012) come the findings set out here.

Where two headings read alike, the source gives them in different places.

The target in one series is T1, caspase-3 (Homo sapiens, UniProt P42574).
T1 construct: purchased Sigma-Aldrich (St. Louis, Mo.)
T1 sequence (P42574 29-175 limits assumed): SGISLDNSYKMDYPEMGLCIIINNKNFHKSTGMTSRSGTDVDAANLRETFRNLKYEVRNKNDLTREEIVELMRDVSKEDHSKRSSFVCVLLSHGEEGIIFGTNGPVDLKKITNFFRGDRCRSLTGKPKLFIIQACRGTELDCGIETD
T1 sequence (P42574 176-277 limits assumed): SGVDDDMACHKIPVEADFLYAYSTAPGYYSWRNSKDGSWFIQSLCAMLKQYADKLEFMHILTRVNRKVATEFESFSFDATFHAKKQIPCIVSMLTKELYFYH
In words: Enzyme inhibition assay, caspase 3 (fluorogenic Ac-DEVD-AMC). The class given is biochemical.

In the next series the target is T2, caspase 7 (Homo sapiens, UniProt P55210).
T2 construct: purchased Sigma-Aldrich (St. Louis, Mo.)
T2 sequence (P55210 24-198 limits assumed): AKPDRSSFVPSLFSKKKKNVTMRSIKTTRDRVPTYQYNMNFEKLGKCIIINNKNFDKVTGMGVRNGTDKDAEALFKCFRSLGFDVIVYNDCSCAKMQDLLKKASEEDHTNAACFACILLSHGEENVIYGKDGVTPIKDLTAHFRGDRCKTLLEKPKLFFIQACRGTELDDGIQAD
T2 sequence (P55210 207-303 limits assumed): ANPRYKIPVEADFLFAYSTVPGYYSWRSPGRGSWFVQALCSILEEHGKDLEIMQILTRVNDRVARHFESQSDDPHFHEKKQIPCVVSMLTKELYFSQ
Kind of series: Enzyme inhibition assay, caspase 7 (fluorogenic Ac-DEVD-AMC). The class given is biochemical.

Another series has as its target T3, caspase 6 (Homo sapiens, UniProt P55212).
T3 construct: purchased Sigma-Aldrich (St. Louis, Mo.)
T3 sequence (P55212 24-179 limits assumed): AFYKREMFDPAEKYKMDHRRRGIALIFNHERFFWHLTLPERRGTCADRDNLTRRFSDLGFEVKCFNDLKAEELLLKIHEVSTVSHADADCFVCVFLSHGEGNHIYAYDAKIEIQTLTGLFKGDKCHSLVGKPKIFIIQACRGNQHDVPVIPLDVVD
T3 sequence (P55212 194-293 limits assumed): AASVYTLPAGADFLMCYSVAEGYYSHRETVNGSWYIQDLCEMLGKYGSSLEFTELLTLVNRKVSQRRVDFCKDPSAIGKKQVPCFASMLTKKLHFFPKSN
In words: Enzyme inhibition assay, caspase 6 (fluorogenic Ac-VEID-AMC). The class given is biochemical.

The target of another series is T4, caspase 8 (Homo sapiens, UniProt Q14790).
T4 construct: purchased Sigma-Aldrich (St. Louis, Mo.)
T4 sequence (Q14790 217-374 limits assumed): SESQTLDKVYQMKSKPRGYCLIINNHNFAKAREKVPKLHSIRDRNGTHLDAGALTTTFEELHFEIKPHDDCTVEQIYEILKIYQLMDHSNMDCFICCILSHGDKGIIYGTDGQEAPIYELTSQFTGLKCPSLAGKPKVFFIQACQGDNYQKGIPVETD
T4 sequence (Q14790 385-479 limits assumed): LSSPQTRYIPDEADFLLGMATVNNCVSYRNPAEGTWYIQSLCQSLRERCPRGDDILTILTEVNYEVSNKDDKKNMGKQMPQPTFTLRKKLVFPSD
Kind of series: Enzyme inhibition assay, caspase 8 (fluorogenic Ac-IETD-AMC). The class given is biochemical.

A further series addresses T5, caspase 1 (Homo sapiens, UniProt P29466).
T5 construct: purchased BIOMOL Research Laboratories (Plymouth Meeting, Pa.)
T5 sequence (P29466 120-297 limits assumed): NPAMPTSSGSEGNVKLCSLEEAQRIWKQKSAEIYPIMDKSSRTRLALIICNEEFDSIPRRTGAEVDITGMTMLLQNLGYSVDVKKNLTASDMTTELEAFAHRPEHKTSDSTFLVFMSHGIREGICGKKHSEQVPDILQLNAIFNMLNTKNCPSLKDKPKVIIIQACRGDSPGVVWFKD
T5 sequence (P29466 317-404 limits assumed): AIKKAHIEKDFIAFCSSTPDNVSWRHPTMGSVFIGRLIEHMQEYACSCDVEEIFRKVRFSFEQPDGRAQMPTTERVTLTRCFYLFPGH
Kind of series: Enzyme inhibition assay, caspase 1 (fluorogenic Ac-YVAD-AMC). It is filed as biochemical.

[1] abbreviates: Table 4, read-out: IC50 (nM) caspase-3.
[2] abbreviates: Table 4, read-out: IC50 (nM) caspase-7.
[3] abbreviates: Table 5, read-out: IC50 (nM) caspase-3.
Where [4] appears, read: Table 5, read-out: IC50 (nM) caspase-7.
Setting [5] is: Table 2, read-out: IC50 (nM) Caspase 3.
The mark [6] stands for this setting: Table 2, read-out: IC50 (nM) Caspase 7.
Where [7] appears, read: Table 2, read-out: IC50 (nM) Caspase 6.
[8] abbreviates: Table 2, read-out: IC50 (nM) Caspase 8.
[9] abbreviates: Table 2, read-out: IC50 (nM) Caspase 1.

Method for caspase 1: (§1) Enzyme Assays. Inhibition of recombinant human caspase-3 and other caspases by the isatin analogues was assessed using a fluorometric assay by measuring the accumulation of a fluorogenic product, 7-amino-4-methylcoumarin (7-AMC).
(§2) Enzyme Inhibition Assays. Recombinant human caspases (3, 6, 7, and 8) and their peptide-specific substrates (Ac-DEVDAMC, Ac-VEID-AMC, Ac-DEVD-AMC, and Ac-IETD-AMC, respectively) were purchased from Sigma-Aldrich (St. Louis, Mo.) with the exception of caspase 1 and its substrate (Ac-YVAD-AMC), which were obtained from BIOMOL Research Laboratories (Plymouth Meeting, Pa.). The enzymatic activity of caspases was determined by measuring the accumulation of the fluorogenic product 7-amino-4-methylcoumarin (AMC). All assays were prepared in 96-well format at a volume of 210 μL per well and consisted of 100 mM Na+ HEPES (pH 7.4), 10% sucrose, 100 mM NaCl, 0.1% CHAPS, 5 mM 2-mercaptoethanol, 2 mM EDTA, 10 μM Ac-YVAD-AMC (caspase 1); 20 mMNa^+ HEPES (pH 7.4), 10% sucrose, 100 mMNaCl, 0.1% CHAPS, 2 mM EDTA, 10 μM Ac-DEVD-AMC (caspase 3); 20 mM Na^+ HEPES (pH 7.4), 10% sucrose, 100 mM NaCl, 0.1% CHAPS, 2 mM EDTA, 10 μM Ac-VEID-AMC (caspase 6); 20 mM Na+ HEPES (pH 7.4), 100 mM NaCl, 10% sucrose, 0.1% CHAPS, 5 mM 2-mercaptoethanol, 2 mM EDTA, 10 μM Ac-DEVD-AMC (caspase 7); 20 mM Na+ HEPES (pH 7.4), 10% sucrose, 100 mM NaCl, 0.1% CHAPS, 2 mM EDTA, 10 μM Ac-IETD-AMC (caspase 8).
(§3) Recombinant caspases were first assayed to determine the optimal concentration for each experiment. Optimal concentrations were based in the linear range of the enzyme activation curves. Peptide inhibitors with known IC50 values were tested together with the compounds as a control for each caspase assay. […] Peptide and nonpeptide inhibitors were dissolved in DMSO, and a 2 serial dilution was performed prior to screening in order to obtain desired concentrations. 10 μL was added to each well containing 100 μL caspase solution and allowed to incubate on ice for 30 min. […] The final concentration of DMSO in all wells was 5% of the total volume. In caspase-1 and caspase-7 assays, 10 mM 2-mercaptoethanol was added to the substrate solution for full activation of the enzymes.
(§4) Compounds were tested in duplicate, and IC50 curves were calculated for all inhibitors assayed. Final IC50s were the average of three independent experiments.
Method for caspase 6: as §1, §2, §3, §4
Method for caspase 7: as §1, §2, §3, §4

A word on the IC50: it is the concentration that gives 50% inhibition. One may read the melting point as the temperature of the solid-liquid transition. `O=C1C(=O)N(Cc2ccccc2)c2ccc(S(=O)(=O)N3CCC[C@H]3COc3ccccc3)cc21` [Compound 2, (S)-1-Benzyl-5-(2-phenoxymethyl-pyrrolidine-1-sulfonyl)-1H-indole-2,3-dione] showed a melting point of 97.2 to 99.1 °C. Besides, at caspase-3 (setting [1]), the IC50 turned out to be 12.2 ± 0.3 nM. For the same compound, the IC50 on caspase 7 (setting [2]) turned out to be 28 ± 0.7 nM.

For `O=C1C(=O)N(Cc2ccc(F)cc2)c2ccc(S(=O)(=O)N3CCC[C@H]3COc3ccccc3)cc21` [Compound 11c, (S)-1-(4-Fluorobenzyl)-5-(2-phenoxymethyl-pyrrolidine-1-sulfonyl)-1H-indole-2,3-dione], the melting point was 74.5 to 75.4 °C.

In turn, `CSc1ccc(CN2C(=O)C(=O)c3cc(S(=O)(=O)N4CCC[C@H]4COc4ccccc4)ccc32)cc1` [Compound 11d, (S)-1-(4-Methylthiobenzyl)-5-(2-phenoxymethyl-pyrrolidine-1-sulfonyl)-1H-indole-2,3-dione] gave a melting point of 175.4 to 176.8 °C.

In turn, `O=C1C(=O)N(Cc2ccnc(F)c2)c2ccc(S(=O)(=O)N3CCC[C@H]3COc3ccccc3)cc21` [Compound 11h, (S)-1-(2-Fluoro-pyridin-4-yl-methyl)-5-(2-phenoxymethyl-pyrrolidine-1-sulfonyl)-1H-indole-2,3-dione] gave a melting point of 180.1 to 181.9 °C. Moreover, the half-maximal inhibitory concentration (IC50) on caspase-3 (setting [1]) was found to be 21.3 ± 3.2 nM. Besides, the IC50 at caspase 7 (setting [2]) stood at 58 ± 2.8 nM.

For the compound `O=C1C(=O)N(Cc2cccc(F)n2)c2ccc(S(=O)(=O)N3CCC[C@H]3COc3ccccc3)cc21` [Compound 11i, (S)-1-(6-Fluoro-pyridin-2-yl-methyl)-5-(2-phenoxymethyl-pyrrolidine-1-sulfonyl)-1H-indole-2,3-dione], the melting point fell in the range of 128.6 to 129.4 °C. In addition, on caspase-3 (setting [1]), the IC50 was determined as 9.1 ± 1.8 nM. Also, the IC50 on caspase 7 (setting [2]) is 22.2 ± 4 nM.

For `O=C1Nc2ccc(S(=O)(=O)N3CC[C@H]3COc3ccccc3)cc2C1=O` [Compound 17, (S)-5-(2-Phenoxymethyl-azetidine-1-sulfonyl)-1H-indole-2,3-dione], the melting point was in the range of 173.2 to 174.5 °C. In addition, the IC50 on caspase-3 (setting [3]) was found to be 287 ± 24.7 nM. Also, the IC50 on caspase 7 (setting [4]) amounted to 1350 ± 141 nM. For the same compound, at caspase 7 (relative to the corresponding pyrrolidine analogue 10), the “fold less potent for inhibiting caspase-7” value is recorded as more than 2 fold.

The compound `CN1C(=O)C(=O)c2cc(S(=O)(=O)N3CC[C@H]3COc3ccccc3)ccc21` [Compound 18a, (S)-1-Methyl-5-(2-phenoxymethyl-azetidine-1-sulfonyl)-1H-indole-2,3-dione] had a melting point of 173.5 to 174.9 °C. For the same compound, the IC50 on caspase-3 (setting [3]) came out at 91.7 ± 7.6 nM. Moreover, the IC50 at caspase 7 (setting [4]) was 362.5 ± 3.5 nM.

Compound `O=C1C(=O)N(Cc2ccccc2)c2ccc(S(=O)(=O)N3CC[C@H]3COc3ccccc3)cc21` [Compound 18b, (S)-1-Benzyl-5-(2-phenoxymethyl-azetidine-1-sulfonyl)-1H-indole-2,3-dione] yielded a melting point of 157.1 to 158.9 °C. The IC50 on caspase-3 (setting [3]) was determined as 9.7 ± 1.6 nM. For the same compound, at caspase 7 (setting [4]), the IC50 amounted to 29.5 ± 4.9 nM.

`COc1ccc(CN2C(=O)C(=O)c3cc(S(=O)(=O)N4CC[C@H]4COc4ccccc4)ccc32)cc1` [Compound 18c, (S)-1-(4-Methoxybenzyl)-5-(2-phenoxymethyl-azetidine-1-sulfonyl)-1H-indole-2,3-dione] returned a melting point of 159.8 to 161.5 °C. Moreover, at caspase-3 (setting [3]), the IC50 was 8.4 ± 1.2 nM. Moreover, the IC50 on caspase 7 (setting [4]) was determined as 23.2 ± 3 nM.

`CSc1ccc(CN2C(=O)C(=O)c3cc(S(=O)(=O)N4CC[C@H]4COc4ccccc4)ccc32)cc1` [Compound 18d, (S)-1-(4-Methylthiobenzyl)-5-(2-phenoxymethyl-azetidine-1-sulfonyl)-1H-indole-2,3-dione] yielded a melting point of 167.6 to 169.2 °C. Besides, the IC50 at caspase-3 (setting [3]) amounted to 11.3 ± 1.2 nM. Also, the IC50 at caspase 7 (setting [4]) came out at 26.7 ± 7.2 nM.

`O=C1C(=O)N(Cc2ccc(F)cc2)c2ccc(S(=O)(=O)N3CC[C@H]3COc3ccccc3)cc21` [Compound 18e, (S)-1-(4-Fluorobenzyl)-5-(2-phenoxymethyl-azetidine-1-sulfonyl)-1H-indole-2,3-dione] registered a melting point of 164.6 to 165.7 °C. Moreover, the IC50 on caspase-3 (setting [3]) was determined as 8.8 ± 1.4 nM. In addition, the IC50 at caspase 7 (setting [4]) was 21 ± 5.6 nM.

In turn, `O=C1C(=O)N(Cc2ccccc2F)c2ccc(S(=O)(=O)N3CC[C@H]3COc3ccccc3)cc21` [Compound 18f, (S)-1-(2-Fluorobenzyl)-5-(2-phenoxymethyl-azetidine-1-sulfonyl)-1H-indole-2,3-dione] had a melting point of 147.1 to 148 °C. Also, the IC50 on caspase-3 (setting [3]) amounted to 9.4 ± 0.3 nM. In addition, the IC50 at caspase 7 (setting [4]) turned out to be 26 ± 5.2 nM.

For the compound `O=C1C(=O)N(Cc2ccc(F)nc2)c2ccc(S(=O)(=O)N3CC[C@H]3COc3ccccc3)cc21` [Compound 18g, (S)-1-(6-Fluoropyridin-3-ylmethyl)-5-(2-phenoxymethylazetidine-1-sulfonyl)-1H-indole-2,3-dione], the melting point fell in the range of 176.8 to 178.3 °C. On caspase-3 (setting [3]), the IC50 was found to be 10.9 ± 1.4 nM. In addition, on caspase 7 (setting [4]), the IC50 worked out at 17 ± 3 nM.

In turn, `O=C1C(=O)N(Cc2ccnc(F)c2)c2ccc(S(=O)(=O)N3CC[C@H]3COc3ccccc3)cc21` [Compound 18h, (S)-1-(2-Fluoropyridin-4-yl-methyl)-5-(2-phenoxymethylazetidine-1-sulfonyl)-1H-indole-2,3-dione] yielded a melting point of 159 to 159.9 °C. In addition, the IC50 at caspase-3 (setting [3]) was 29.2 ± 5.2 nM. The IC50 on caspase 7 (setting [4]) is 135 ± 7.1 nM.

Compound `O=C1C(=O)N(Cc2cccc(F)n2)c2ccc(S(=O)(=O)N3CC[C@H]3COc3ccccc3)cc21` [Compound 18i, (S)-1-(6-Fluoropyridin-2-yl-methyl)-5-(2-phenoxymethylazetidine-1-sulfonyl)-1H-indole-2,3-dione] showed a melting point of 144.7 to 146.1 °C. The IC50 at caspase-3 (setting [3]) stood at 5.8 ± 1 nM. At caspase 7 (setting [4]), the IC50 is 22.7 ± 3.1 nM.

Consider `N#CC(C#N)=C1C(=O)N(Cc2ccc(OCCF)cc2)c2ccc(S(=O)(=O)N3CCC[C@H]3COc3cccnc3)cc21` [WC-II-103], for which the IC50 was 7.5 ± 0.2 nM at caspase-3 (setting [5]); 26 ± 5.2 nM at caspase 7 (setting [6]); 770 ± 119 nM at caspase 6 (setting [7]); more than 50000 nM at caspase 8 (setting [8]); 3500 nM on caspase 1 (setting [9]).

In the case of `N#CC(C#N)=C1C(=O)N(Cc2ccc(OCCF)cc2)c2ccc(S(=O)(=O)N3CC[C@H]3COc3cccnc3)cc21` [WC-II-104], the IC50 on caspase-3 (setting [5]) was 7.1 ± 0.6 nM; at caspase 7 (setting [6]), 22.7 ± 3.1 nM; on caspase 6 (setting [7]) it was 580 ± 55 nM; at caspase 8 (setting [8]), more than 50000 nM; on caspase 1 (setting [9]), 2900 nM.

In the case of “(S)-1-(4-Methoxybenzyl)-5-(2-phenoxymethyl-pyrrolidine-1-sulfonyl)-1H-indole-2,3-dione [Compound 11b]”, the IC50 was 14.5 ± 1.6 nM at caspase-3 (setting [1]); 21.8 ± 3.5 nM at caspase 7 (setting [2]); more than 5000 nM on caspase 6 (Table 4, read-out: IC50 (nM) caspase-6); more than 50000 nM on caspase 8 (Table 4, read-out: IC50 (nM) caspase-8); more than 10000 nM at caspase 1 (Table 4, read-out: IC50 (nM) caspase-1).
